Assay results as given in paper PMC4048319, “Design and Synthesis of High Affinity Inhibitors of Plasmodium falciparum and Plasmodium vivax N-Myristoyltransferases Directed by Ligand Efficiency Dependent Lipophilicity (LELP)” (Journal of Medicinal Chemistry, 2014).

What was measured:
[1] = biological target: T1, PvNMT (Plasmodium vivax, UniProt A5K1A2); assay: NMT enzyme inhibition, CPM fluorescence assay (PvNMT); type: biochemical
T1 sequence (A5K1A2 1-410): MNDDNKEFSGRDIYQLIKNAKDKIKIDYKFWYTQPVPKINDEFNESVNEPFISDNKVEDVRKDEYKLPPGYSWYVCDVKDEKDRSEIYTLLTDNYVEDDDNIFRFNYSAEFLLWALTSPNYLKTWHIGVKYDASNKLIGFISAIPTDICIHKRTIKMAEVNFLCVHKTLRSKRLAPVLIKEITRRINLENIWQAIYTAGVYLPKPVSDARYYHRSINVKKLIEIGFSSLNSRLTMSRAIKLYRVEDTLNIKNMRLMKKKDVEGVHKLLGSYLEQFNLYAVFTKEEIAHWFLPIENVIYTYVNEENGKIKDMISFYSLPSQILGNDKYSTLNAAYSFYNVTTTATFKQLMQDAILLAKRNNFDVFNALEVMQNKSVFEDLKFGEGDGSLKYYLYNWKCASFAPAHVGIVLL
Protocol: (§1) All IC50 determinations were carried out using a 7-diethylamino-3-(4′-maleimidylphenyl)-4-methylcoumarin (CPM) fluorescence assay, as described previously for HsNMT1,[45] PvNMT,[46] and PfNMT.[21]
(§2) IC50 values are the mean value of two or more determinations, and standard deviation is within 20% of the IC50 unless otherwise specified. Data were elaborated using Microsoft Office Excel 2010, and IC50 values were determined using GraFit 7.0 (Erithacus Software Ltd., U.K.) by nonlinear regression fitting, which were then quoted as Ki as defined below.
(§3) The Michaelis constant (Km) was 3.64 μM and the substrate concentration was 4.00 μM, resulting in a Ki of 0.008 μM. Km values were calculated as described previously.[45]

[2] = system: Plasmodium falciparum 3D7; assay: Plasmodium falciparum Sybr Green viability assay (3D7); type: cell-based; details: blood stage, Sybr Green fluorometric assay, 96 h, read-out: Pf 3D7 EC50
Protocol: Synchronous Plasmodium falciparum 3D7 late stage trophozoites at 33–36 h were used. […] Red blood cells used for the assay were centrifuged to remove the buffy coat and washed twice in Roswell Park Memorial Institute (RPMI) medium 1640 so that no white blood cells were present. The culture medium contained RPMI 1640 with 5 g/L Albumax, 0.025 g/L gentamycin, and 0.292 g/L L-glutamine. Sterile 96-well black tissue culture plates (Costar) were used routinely for every assay. […] Two sets of control were used in duplicate wells, one set with no added drugs (positive control) and one with uninfected red blood cells (negative control). […] After 48 h supernatants were taken from each well and replaced with fresh drug and incubated for a further 48 h in the same manner. At the end of the 96 h incubation, 25 μL of SYBR Green I dye (SYBR Green I nucleic acid gel stain 10000×, in DMSO from Invitrogen) in lysis buffer (1 μL dye to 1 mL of lysis buffer) was added to each well and stored overnight at −20 °C. […] Plates were warmed to room temperature, and fluorescence intensity was measured with a FLUOstar Omega microplate fluorescence reader (BMG Labtech). Values were expressed in relative fluorescence units. […] Fluorescence intensity unit was converted to percentage (%) of growth as follows: [drawing 2]

[3] = biological target: T2, PfNMT (Plasmodium falciparum, UniProt Q9U419); assay: LELP (cLogP/LE, PfNMT LE)
T2 sequence (Q9U419 1-410): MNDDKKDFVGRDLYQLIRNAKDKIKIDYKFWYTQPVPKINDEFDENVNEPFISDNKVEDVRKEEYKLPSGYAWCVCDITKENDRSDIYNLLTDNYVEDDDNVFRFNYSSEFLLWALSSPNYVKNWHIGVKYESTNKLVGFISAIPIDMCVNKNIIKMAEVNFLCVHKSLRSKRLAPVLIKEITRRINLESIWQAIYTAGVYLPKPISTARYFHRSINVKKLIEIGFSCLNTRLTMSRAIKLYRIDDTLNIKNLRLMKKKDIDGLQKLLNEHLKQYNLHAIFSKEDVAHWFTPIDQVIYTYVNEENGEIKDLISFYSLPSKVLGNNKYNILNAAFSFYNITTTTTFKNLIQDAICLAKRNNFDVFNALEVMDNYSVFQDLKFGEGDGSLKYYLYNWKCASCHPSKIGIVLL

[4] = biological target: T2, PfNMT; assay: NMT enzyme inhibition, CPM fluorescence assay (PfNMT); type: biochemical
Protocol: as §1, §2, §3

Compound: COc1cccc(COC(=O)c2sc3ccccc3c2OC2CCNCC2)c1 [compound 1]
- Ki [1]: 84 nM
- EC50 [2]: 2000 nM
- LELP [3]: 13.5
- Ki [4]: 832 nM
